Among the data in patent US20260042753A1 (Merck Patent GmbH, priority 2019, published 2026) are IC50 values, retold here.

Molecules are shown by their SMILES.

One experiment has as its target c-Kit(V654A) (Homo sapiens, UniProt P10721, V654A). The experiment in a line: c-Kit(V654A) assay. The settings on record: Table 1; 200 μM ATP. The class given is biochemical. Put shortly:
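Radiometric filter-binding read-out: after 3% phosphoric acid stop, peptide-incorporated 33P on filtermat scintillation-counted. Enzyme: human c-Kit V654A, residues 544–end, N-terminal GST fusion.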

For experiment [1], the target named is mutant cKIT (560-576 and V654A) in GIST430/654 cell line (Homo sapiens (Human), UniProt P10721, DEL560-576/V654A). The experiment can be described thus: Cellular testing of cKIT mutant inhibitors: phospho-Y307-cKIT Luminex assay in GIST430/654 cells. The class given is cell-based. The settings on record: Table 1; cKIT autophosphorylation, compounds 45 min; read-out: GIST 430/654 IC50. Put shortly: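 GIST430/654 cells carrying constitutively active cKIT (Δ560-576/V654A) were grown with 100 nM imatinib, then treated with serially diluted compound for 45 min. Lysates were captured on anti-total-cKIT Luminex beads overnight at 4 °C and probed for phospho-Y307-cKIT. IC50 was fitted from percent of 0.3% DMSO control.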
Sequence of mutant cKIT (560-576 and V654A) in GIST430/654 cell line (P10721 other isoform, or with tags, fused parts or gaps V654A/del 1-25/del 560-576 limits assumed): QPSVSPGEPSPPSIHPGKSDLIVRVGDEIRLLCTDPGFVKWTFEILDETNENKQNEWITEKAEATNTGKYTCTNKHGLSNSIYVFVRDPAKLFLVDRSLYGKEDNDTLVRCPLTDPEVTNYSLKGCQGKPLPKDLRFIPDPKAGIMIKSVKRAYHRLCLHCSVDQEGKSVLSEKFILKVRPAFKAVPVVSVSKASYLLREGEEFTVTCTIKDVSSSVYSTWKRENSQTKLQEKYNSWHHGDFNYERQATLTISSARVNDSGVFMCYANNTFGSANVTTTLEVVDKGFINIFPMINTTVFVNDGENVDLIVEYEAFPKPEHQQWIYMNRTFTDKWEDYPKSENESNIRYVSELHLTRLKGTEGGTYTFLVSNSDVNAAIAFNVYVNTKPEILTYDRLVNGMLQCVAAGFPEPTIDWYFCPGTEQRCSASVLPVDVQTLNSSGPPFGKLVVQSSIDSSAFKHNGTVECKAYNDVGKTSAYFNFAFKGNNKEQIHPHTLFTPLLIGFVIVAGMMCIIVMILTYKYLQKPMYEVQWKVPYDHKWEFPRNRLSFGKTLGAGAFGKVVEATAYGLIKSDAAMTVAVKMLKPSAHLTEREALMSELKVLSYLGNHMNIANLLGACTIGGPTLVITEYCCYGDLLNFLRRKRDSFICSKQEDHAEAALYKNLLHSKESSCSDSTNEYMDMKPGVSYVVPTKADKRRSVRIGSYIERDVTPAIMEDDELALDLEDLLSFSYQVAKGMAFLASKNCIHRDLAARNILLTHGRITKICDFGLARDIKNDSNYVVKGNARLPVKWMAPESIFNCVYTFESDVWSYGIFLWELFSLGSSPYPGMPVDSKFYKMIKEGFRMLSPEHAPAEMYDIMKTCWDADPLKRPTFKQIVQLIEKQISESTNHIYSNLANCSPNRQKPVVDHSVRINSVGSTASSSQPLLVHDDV

For the compound `COCCOc1cc2[nH]nc(-c3cc(-c4ccc(C(=O)N5CCN(C6COC6)CC5)c(F)c4)no3)c2cc1F` [A196, (2-fluoro-4-{5-[5-fluoro-6-(2-methoxy-ethoxy)-1H-indazol-3-yl]-isoxazol-3-yl}-phenyl)-(4-oxetan-3-yl-piperazin-1-yl)-methanone], the IC50 against c-Kit(V654A) turned out to be 3.8 nM; in experiment [1], 48 nM.
On the same counts, the results for `COCCOc1cc2[nH]nc(-c3cc(-c4ccc(C(=O)N5CC(N6CCN(C7COC7)CC6)C5)cc4)no3)c2cc1F` [A197, 5-fluoro-6-(2-methoxyethoxy)-3-[3-(4-{3-[4-(oxetan-3-yl)piperazin-1-yl]azetidine-1-carbonyl}phenyl)-1,2-oxazol-5-yl]-1H-indazole] are 1.9 nM and 87 nM.
In the same order, the values of `COCCOc1cc2[nH]nc(-c3cc(-c4ccc(C(=O)N5CCCN(C6COC6)CC5)cc4)no3)c2cc1F` [A198, 5-fluoro-6-(2-methoxyethoxy)-3-(3-{4-[4-(oxetan-3-yl)-1,4-diazepane-1-carbonyl]phenyl}-1,2-oxazol-5-yl)-1H-indazole] are 0.92 nM and 73 nM.
For `COCCOc1cc2[nH]nc(-c3cc(-c4ccc(C(=O)N5CC6(CCN(C7COC7)CC6)C5)cc4)no3)c2cc1F` [A199, 2-(4-{5-[5-fluoro-6-(2-methoxyethoxy)-1H-indazol-3-yl]-1,2-oxazol-3-yl}benzoyl)-7-(oxetan-3-yl)-2,7-diazaspiro[3.5]nonane], the IC50 at c-Kit(V654A) stood at 0.76 nM; in experiment [1] it was 28 nM.
In the same order, the values of `COCCOc1cc2[nH]nc(-c3cc(-c4ccc(C(=O)N5CC(N6CCOC[C@@H]6C)C5)cc4)no3)c2cc1F` [A200, 5-fluoro-6-(2-methoxyethoxy)-3-[3-(4-{3-[(3S)-3-methylmorpholin-4-yl]azetidine-1-carbonyl}phenyl)-1,2-oxazol-5-yl]-1H-indazole] are 1.3 nM and 19 nM.
In the same order, the values of `COCCOc1cc2[nH]nc(-c3cc(-c4ccc(C(=O)N5CC(N6CCOC[C@H]6C)C5)cc4)no3)c2cc1F` [A201, 5-fluoro-6-(2-methoxyethoxy)-3-[3-(4-{3-[(3R)-3-methylmorpholin-4-yl]azetidine-1-carbonyl}phenyl)-1,2-oxazol-5-yl]-1H-indazole] are 2 nM and 31 nM.
Regarding `COCCOc1cc2[nH]nc(-c3cc(-c4ccc(C(=O)N5C[C@H]6COC[C@H]6C5)cc4)no3)c2cc1F` [A202, 3-(3-{4-[(cis)-hexahydro-1H-furo[3,4-c]pyrrole-5-carbonyl]phenyl}-1,2-oxazol-5-yl)-5-fluoro-6-(2-methoxyethoxy)-1H-indazole], the IC50 amounted to 1.1 nM on c-Kit(V654A) and 19 nM in experiment [1].
In the case of `COCCOc1cc2[nH]nc(-c3cc(-c4ccc(C(=O)N5CC(N6CCOCC6=O)C5)cc4)no3)c2cc1F` [A204, 4-[1-(4-{5-[5-fluoro-6-(2-methoxyethoxy)-1H-indazol-3-yl]-1,2-oxazol-3-yl}benzoyl)azetidin-3-yl]morpholin-3-one], the IC50 turned out to be 0.88 nM at c-Kit(V654A) and 61 nM in experiment [1].
On the same counts, the results for `O=C(c1ccc(-c2cc(-c3n[nH]c4cc(OCCO)c(F)cc34)on2)cc1)N1CCN(C2COC2)CC1` [A205, 2-{[5-fluoro-3-(3-{4-[4-(oxetan-3-yl)piperazine-1-carbonyl]phenyl}-1,2-oxazol-5-yl)-1H-indazol-6-yl]oxy}ethan-1-ol] are 23 nM and 130 nM.
As for `COCCOc1cc2[nH]nc(-c3cc(-c4ccc(C(=O)N5CC(O)(c6ccncc6)C5)cc4)no3)c2cc1F` [A206, 1-(4-{5-[5-fluoro-6-(2-methoxyethoxy)-1H-indazol-3-yl]-1,2-oxazol-3-yl}benzoyl)-3-(pyridin-4-yl)azetidin-3-ol], the IC50 against c-Kit(V654A) stood at 0.67 nM; in experiment [1], 79 nM.
In the same order, the values of `COCCOc1cc2[nH]nc(-c3cc(-c4ccc(C(=O)N5Cc6cncnc6C5)cc4)no3)c2cc1F` [A207, 5-fluoro-6-(2-methoxyethoxy)-3-[3-(4-{5H,6H,7H-pyrrolo[3,4-d]pyrimidine-6-carbonyl}phenyl)-1,2-oxazol-5-yl]-1H-indazole] are 1 nM and 73 nM.
In the same order, the values of `COCCOc1cc2[nH]nc(-c3cc(-c4ccc(C(=O)N5Cc6cn[nH]c6C5)cc4)no3)c2cc1F` [A208, 5-fluoro-6-(2-methoxyethoxy)-3-[3-(4-{1H,4H,5H,6H-pyrrolo[3,4-c]pyrazole-5-carbonyl}phenyl)-1,2-oxazol-5-yl]-1H-indazole] are 0.74 nM and 75 nM.
In the same order, the values of `O=C(c1ccc(-c2cc(-c3n[nH]c4cc(OCCO)c(F)cc34)on2)cc1)N1CC(N2CCOCC2)C1` [A209, 2-{[5-fluoro-3-(3-{4-[3-(morpholin-4-yl)azetidine-1-carbonyl]phenyl}-1,2-oxazol-5-yl)-1H-indazol-6-yl]oxy}ethan-1-ol] are 0.86 nM and 120 nM.
Consider `COCCOc1cc2[nH]nc(-c3cc(-c4ccc(C(=O)N5CC(N6CCO[C@@H](C)C6)C5)cc4)no3)c2cc1F` [A210, 5-fluoro-6-(2-methoxyethoxy)-3-[3-(4-{3-[(2S)-2-methylmorpholin-4-yl]azetidine-1-carbonyl}phenyl)-1,2-oxazol-5-yl]-1H-indazole], for which the IC50 on c-Kit(V654A) was determined as 0.8 nM; in experiment [1] it was 30 nM.
`COCCOc1cc2[nH]nc(-c3cc(-c4ccc(C(=O)N5CC(N6CCO[C@H](C)C6)C5)cc4)no3)c2cc1F` [A211, 5-fluoro-6-(2-methoxyethoxy)-3-[3-(4-{3-[(2R)-2-methylmorpholin-4-yl]azetidine-1-carbonyl}phenyl)-1,2-oxazol-5-yl]-1H-indazole]: the IC50 against c-Kit(V654A) turned out to be 1.3 nM; in experiment [1], 39 nM.
On the same counts, the results for `COCCOc1cc2[nH]nc(-c3cc(-c4ccc(C(=O)N5CC(c6cncnc6)C5)cc4)no3)c2cc1F` [A212, 5-fluoro-6-(2-methoxyethoxy)-3-(3-{4-[3-(pyrimidin-5-yl)azetidine-1-carbonyl]phenyl}-1,2-oxazol-5-yl)-1H-indazole] are 0.59 nM and 41 nM.
On the same counts, the results for `COCCOc1cc2[nH]nc(-c3cc(-c4ccc(C(=O)N5Cc6cnn(C)c6C5)cc4)no3)c2cc1F` [A213, 5-fluoro-6-(2-methoxyethoxy)-3-[3-(4-{1-methyl-1H,4H,5H,6H-pyrrolo[3,4-c]pyrazole-5-carbonyl}phenyl)-1,2-oxazol-5-yl]-1H-indazole] are 0.49 nM and 48 nM.
In the same order, the values of `COCCOc1cc2[nH]nc(-c3cc(-c4ccc(C(=O)N5C[C@@H]6CN(C7COC7)C[C@@H]6C5)cc4)no3)c2cc1F` [A216, 3-(3-{4-[(cis)-5-(oxetan-3-yl)-octahydropyrrolo[3,4-c]pyrrole-2-carbonyl]phenyl}-1,2-oxazol-5-yl)-5-fluoro-6-(2-methoxyethoxy)-1H-indazole] are 1.1 nM and 27 nM.
As for `COCCOc1cc2[nH]nc(-c3cc(-c4ccc(C(=O)N5C[C@@H]6CS(=O)(=O)C[C@@H]6C5)cc4)no3)c2cc1F` [A217, (cis)-5-(4-{5-[5-fluoro-6-(2-methoxyethoxy)-1H-indazol-3-yl]-1,2-oxazol-3-yl}benzoyl)-hexahydro-1H-2lambda6-thieno[3,4-c]pyrrole-2,2-dione], the IC50 against c-Kit(V654A) stood at 0.32 nM; in experiment [1] it was 43 nM.
